From paper PMC10508631, “Development of an antibody fused with an antimicrobial peptide targeting Pseudomonas aeruginosa: A new approach to prevent and treat bacterial infections” (PLOS Pathogens, 2023) come the findings set out here.

Structures are written as SMILES. Converted amounts (≈) assume the structure as drawn. Where a SMILES comes first, the peptide text is derived from it.

For one data set, the system named is P. aeruginosa ATCC 27853. It counts as cell-based, Pseudomonas aeruginosa. The note with it: for MIC P. aeruginosa ATCC 27853: CLSI microdilution, 2-fold dilutions, ~5 x 10^5 cells/ml, 37°C, 18 hours, MIC = lowest concentration inhibiting growth by at least 80%. On the procedure: (§1) All plates were placed at 37°C overnight.
In the next data set the test system is P. aeruginosa ATCC 39324. Format: cell-based, Pseudomonas aeruginosa. The note with it: for MIC P. aeruginosa ATCC 39324: CLSI microdilution, 2-fold dilutions, ~5 x 10^5 cells/ml, 37°C, 18 hours, MIC = at least 80% growth inhibition. On the procedure: as §1
On the technique in general: In broth dilution the organism is exposed to a series of concentrations in liquid medium.

A further data set in a line: MIC in human serum. Format: cell-based. The note with it: ratio to MIC, strain not given, NA = no activity in human serum.
In another data set the test system is 293T human cell line. The experiment in a line: Mammalian cell cytotoxicity (CellTiter Glo). The note with it: for Cytotox CC50: 293T cells, 10,000 cells/well, three days, 37°C, CellTiter Glo luminescence. Format: cell-based. On the procedure: On day one, cells from an established 293T human cell line were seeded onto 96-well flat-bottom white plates (10,000 293T cells/well). On day two, dilution plates were prepared by diluting compound in cell growth medium to two times the final starting concentration and then carrying out serial two-fold dilutions across the plate. Medium from the cell growth assay plates was then aspirated, and 50 μl from the compound dilution plates were transferred to the assay plates. Fifty microliters of fresh media were then added to all the wells. The plates were incubated at 37°C, 5% CO2 for three days. […]. Media from the assay plates was aspirated, and 100 μl of CellTiter Glo/growth media mix was added to all wells. After five minutes, luminescence was read, and% inhibition vs. compound concentration was plotted.
Background: In ATP-based viability assays light output follows the ATP content of the culture.

The subject of another data set is E. coli ATCC 25922. On the procedure: (§2) MICs and a killing assay were performed in this study. MICs were determined according to CLSI guidelines, using 2-fold serial compound dilutions in 96-well microtiter plates. Briefly, compounds were diluted in water across a mother plate and then 2 μl were stamped to assay plates—one plate for each strain to be tested. Bacterial strains were sub-cultured overnight on agar plates at 37°C. […] These concentrated cultures were diluted 1:200 in growth media to approximately 5 x 10^5 cells/ml. All assay plates received 100 μL diluted culture per well. All plates were placed at 37°C overnight. […] Wells at and above the MIC should appear devoid of growth when visualized.

A further data set concerns S. aureus 29213. On the procedure:
as §2

The test system of data set [1] is red blood cells (defibrinated sheep's blood). The experiment in a line: RBC hemolysis assay. Format: cell-based. The note with it: RBCs. On the procedure:
Test substances were diluted 2-fold in water across a 96-well polypropylene mother plate, leaving one no-compound control. Two microliters from each well were stamped onto a 96-well polystyrene assay plate. A red blood cell suspension was made by mixing 0.2% defibrinated sheep’s blood (Hardy Diagnostics DSB100) in PBS. All assay plates received 100 μl/well of the red blood cell suspension. Plates were then incubated at 37°C overnight.

The subject of a further data set is P. aeruginosa BAA-2110. The data set is described as follows: Killing assay. Format: cell-based, Pseudomonas aeruginosa. The note with it: third-generation cephalosporin-resistant strain; PBS + 1% BSA, 37°C, 90 minutes. On the procedure: (§3) Overnight plates were used to seed 30 ml cultures of growth media in 250 ml vented flasks. Cultures were grown aerobically at 37°C with shaking at 150 rpm. Growth was monitored at A600, and bacterial cells were harvested at mid-log growth. Ten milliliters of culture were pelleted at 4000 x g for 10 minutes and washed once with PBS + 1% BSA (PBSA) prior to resuspension in 2 ml of PBSA. The concentrated culture was used to seed 6 ml tubes of PBSA to an OD giving a concentration of 1 x 10^8 cells/ml. Cultures were diluted to 1 x10^4 cells/ml in PBSA. Test substances were diluted in PBSA, and 50 μL per concentration tested were loaded into a 96-well polypropylene microtiter plate. Fifty microliters of diluted culture were added to all test wells and all no-compound control wells. Plates were shaken and then incubated at 37°C for 90 minutes without shaking. Ten microliters from each assay well were plated onto agar plates and incubated at 37°C overnight. Percent killing was determined by the CFU for test wells vs. the CFU for no-compound control wells.

The next data set relates to P. aeruginosa. The data set is described as follows: Killing assay, strains not itemised. The note with it: P. aeruginosa ATCC strains; 1 x10^4 cells/ml in PBS + 1% BSA, 37°C, 90 minutes, CFU plating; EC50 = lowest concentration causing > 50% colony reduction. It counts as cell-based, Pseudomonas aeruginosa. On the procedure:
as §3

Data set [2] concerns P. aeruginosa ATCC 27853 and P. aeruginosa ATCC 39324. The note with it: two ATCC strains of P. aeruginosa, CLSI. On the procedure: as §2
A further data set in a line: in vitro. The note with it: human, normal human serum diluted in water.
Where [3] appears, read: molar equivalent of the MIC, unit not given.
Where [4] appears, read: CLSI microdilution, 2-fold dilutions, ~5 x 10^5 cells/ml, 37°C, 18 hours, MIC = at least 80% growth inhibition.

As usually defined, the half-life is how long it takes for the measured level to halve. A low value points to rapid decline.

Description for in vitro: The supernatant was warmed to 37°C in a water bath. Twenty microliters of each test article were placed in a 2.0 ml round bottom microfuge tube. Two milliliters of diluted NHS were added to each tube, which was immediately vortexed, followed by transfer of 200 μl to a fresh microfuge tube placed at 37°C in a rotating rack.
Twenty microliters of each test article at 10 mg/ml were placed in a 2.0 mL round-bottomed microfuge tube. […] The tubes were immediately vortexed, and 200 μl were transferred to a fresh microfuge tube with 40 μl of 1% trichloroacetic acid (TCA). Assay tubes were placed at 37°C in a rotating rack. […] Supernatant from each tube was collected and frozen at -20°C for analysis. Mass spectrometry was used to quantify the percentage of test substance still intact.

On to `CC(C)(O/N=C(\C(=O)N[C@@H]1C(=O)N2C(C(=O)[O-])=C(C[n+]3ccccc3)CS[C@H]12)c1csc(N)n1)C(=O)O` [Ceftazadime, reference compound], for which the “MIC P. aeruginosa ATCC 27853” value in the data set with P. aeruginosa ATCC 27853 was 1 µg/mL (≈ 1.83 µM). Moreover, the “MIC P. aeruginosa ATCC 27853, molar equivalents (number in parentheses)” value with P. aeruginosa ATCC 27853 (setting [3]) is listed as 1.8. The “MIC P. aeruginosa ATCC 39324” value in the data set with P. aeruginosa ATCC 39324 came to 1 µg/mL (≈ 1.83 µM). Moreover, the “MIC P. aeruginosa ATCC 39324, molar equivalents (number in parentheses)” value in the data set on P. aeruginosa ATCC 39324 (setting [3]) turned out to be 1.8. Besides, the “Human Serum hsMIC/MIC” value in “MIC in human serum” turned out to be 1. Moreover, in the data set with 293T human cell line, the “Cytotox CC50” value was 550 µg/mL. Further, in the data set on E. coli ATCC 25922 (setting [4]), the “MIC E. coli ATCC 25922” value was found to be 0.25 µg/mL (≈ 0.457 µM). The “MIC E. coli ATCC 25922, molar equivalents (number in parentheses)” value in the data set on E. coli ATCC 25922 (setting [3]) came to 0.5. Further, the “MIC S. aureus 29213” value in the data set with S. aureus 29213 (setting [4]) was determined as 4 µg/mL (≈ 7.32 µM). In the data set with S. aureus 29213 (setting [3]), the “MIC S. aureus 29213, molar equivalents (number in parentheses)” value amounted to 7.3.
On to `CC[C@@H](C)[C@@H](NC(=O)[C@H](NC(=O)[C@@H](CCCNC(=N)N)NC(=O)[C@H]1CCCN1C(=O)[C@@H](CCCCN)NC(=O)[C@@H](CCCCN)NC(=O)[C@@H](Cc1ccccc1)NC(=O)[C@@H](Cc1ccccc1)NC(=O)[C@@H](CCC(=O)O)NC(=O)[C@@H](CCCCN)NC(=O)[C@@H](C)NC(=O)[C@@H](CCCNC(=N)N)NC(=O)[C@@H](CCCCN)NC(=O)[C@@H](CCCCN)NC(=O)[C@H](NC(=O)[C@@H](CO)NC(=O)[C@@H](CCCCN)NC(=O)[C@@H](CCCCN)NC(=O)[C@@H](CC(C)C)NC(=O)[C@@H](CCCCN)NC(=O)[C@@H](CCCNC(=N)N)NC(=O)[C@@H](Cc1ccccc1)NC(=O)[C@@H](Cc1ccccc1)NC(=O)[C@@H](CCCCN)NC(=O)CNC(=O)CNC(=O)CN)C(C)C)C(C)C)C(=O)NCC(=O)N[C@@H](C(=O)N[C@H](CO)C(=O)N[C@@H](C(=O)N1CCC[C@@H]1C(=O)N[C@H](Cc1ccccc1)C(=O)O)[C@H](C)CC)C(C)C` [D297] (HELM PEPTIDE1{G.G.G.[dK].[dF].[dF].[dR].[dK].[dL].[dK].[dK].[dS].[dV].[dK].[dK].[dR].[dA].[dK].[dE].[dF].[dF].[dK].[dK].[dP].[dR].[dV].[dI].G.[dV].[dS].[dI].[dP].[dF]}$$$$V2.0), for which the “hemolytic activity” value in data set [1] was “low”. Also, the “cytotoxic activity” value in the data set on 293T human cell line (mammalian cells / 293T) is reported as “low”.
Regarding `CC[C@H](C)[C@H](NC(=O)[C@@H](NC(=O)[C@H](CCCNC(=N)N)NC(=O)[C@@H]1CCCN1C(=O)[C@H](CCCCN)NC(=O)[C@H](CCCCN)NC(=O)[C@H](Cc1ccccc1)NC(=O)[C@H](Cc1ccccc1)NC(=O)[C@H](CCC(=O)O)NC(=O)[C@H](CCCCN)NC(=O)[C@H](C)NC(=O)[C@H](CCCNC(=N)N)NC(=O)[C@H](CCCCN)NC(=O)[C@H](CCCCN)NC(=O)[C@@H](NC(=O)[C@H](CO)NC(=O)[C@H](CCCCN)NC(=O)[C@H](CCCCN)NC(=O)[C@H](CC(C)C)NC(=O)[C@H](CCCCN)NC(=O)[C@H](CCCNC(=N)N)NC(=O)[C@H](Cc1ccccc1)NC(=O)[C@H](Cc1ccccc1)NC(=O)[C@H](CCCCN)NC(=O)CNC(=O)CNC(=O)CN)C(C)C)C(C)C)C(=O)NCC(=O)N[C@H](C(=O)N[C@@H](CO)C(=O)N[C@H](C(=O)N1CCC[C@H]1C(=O)N[C@@H](Cc1ccccc1)C(=O)O)[C@@H](C)CC)C(C)C` [P297] (H-GGGKFFRKLKKSVKKRAKEFFKKPRVIGVSIPF-OH), the “MIC P. aeruginosa ATCC 27853” value in the data set with P. aeruginosa ATCC 27853 stood at 4 µg/mL (≈ 1.05 µM). For the same molecule, the “MIC P. aeruginosa ATCC 39324” value against P. aeruginosa ATCC 39324 was 2 µg/mL (≈ 0.525 µM). For the same molecule, in the data set with 293T human cell line, the “cytotoxicity against 293T relative to the MIC” value is “approximately 200 fold” and the “Cytotox CC50” value worked out at 780 µg/mL. Also, in the data set with P. aeruginosa BAA-2110, the “EC50 killing assay, BAA-2110” value lay within 0.14 to 0.28 µg/mL. In the data set on P. aeruginosa, the “EC50 in the killing assay” value lay in the range of 0.14 to 0.28 µg/mL. Besides, the “MIC in an MIC assay” value in [2] was 2 to 4 µg/mL. In “in vitro”, this molecule returned a half-life at 0.099 mg/ml of approximately 20 min.
